Data reported in patent US8586292B2, “Methods for identifying compounds for treatment of thrombotic condition” (priority 2002, dated 2013).

Assays:
Assay type in all cases: cell-based
platelets [1] = assay: Clot lysis in the presence of platelets (t-PA/Glu-plasminogen, fluorescent fibrinogen release); details: for Clot Lysis in the Presence of Platelets (value relative to control designated as 1): 90 min 37 C, t-PA 2 U/ml, Glu-plasminogen 20 ug/ml; for fibrinolysis of clots, of that of the control: clots made and lysed in the presence of platelets
Description: To assess the effect of piceatannol and calpeptin on the fibrinolytic effect of t-PA and plasminogen in the presence of platelets, we designed a two step procedure by modifying the fibrinolytic assay as described by Fay et al. (Blood, 83, 351-356, 1994). First, we developed a retracted clot in the presence of fluorescence tagged fibrinogen in tubes containing platelets by the addition of thrombin. The residual fluid was taken out and platelets were added to each tube either treated with piceatannol, calpeptin and the vehicle control DMSO respectively. Glu-plasminogen, t-PA were added and the reaction was started by the addition of thrombin. After 90 minutes, the fluid from each tube was taken out and put in separate microfuge tubes followed by centrifugation. The detection of fluorescence in the supernatant was a measure of clot lysis. To form the clot, Oregon green 488 conjugated fibrinogen (fluorescent, from Molecular Probe) at 300 nM final concentration, 1 mM Ca^2+, 2 mM Mg^2+, was added to platelets at 2×10^8/ml concentration in 0.5 ml. The clot retraction was started with the addition of 0.5 unit/ml thrombin. The tubes were kept at 37° C. in dark for 1 hour until the clot retraction was complete. The residual fluid was taken out from each tube. To initiate clot lysis, platelets at 2×10^8/ml concentration were treated with either 40 ug/ml piceatannol, 200 ug/ml calpeptin or vehicle DMSO. In 0.25 ml of each, Glu-plasminogen was added to a final concentration of 20 μg/ml, and t-PA was added to a final concentration of 2 U/ml. The reaction was started with the addition of thrombin at final concentration of 0.5 U/ml. The tubes were kept at 37° C. for 90 minutes. The fluid from each tube was taken in separate microfuge tubes and centrifuged at cold at 14000 rpm for 10 minutes. The supernatants were isolated. Each supernatant was diluted to 5 times and fluorescence in each sample was measured at excitation: 495 nm and emission: 525 nm.

platelets [2] = assay: Nitric oxide production from platelets (NO-501 monitor, TRAP-stimulated); details: 200 ug/ml, 20 uM TRAP, read for 300 seconds
Description: FIGS. 2A and 2B show the effect of calpeptin on NO production. Platelets at 2×10^8/ml were pre-incubated with either calpeptin at final concentration 200 ug/ml or vehicle DMSO for 30 minutes in the dark. To a final volume of 0.5 ml, fibrinogen was added to a final concentration of 1 mg/ml, 1 mM Ca^2+, and 2 mM Mg^2+, and […]) to a final concentration of 20 μM. The tube was placed in the NO-501 monitor to measure NO production and the platelets are stirred with a magnetic stirrer. TRAP (Thrombin Receptor Agonist Peptide) at a final concentration of 20 μM was added to start the reaction. […] The readings were taken for 300 seconds (5 minutes). FIGS. 3A and 3B show the effect of piceatannol on NO production. Platelets at 2×10^8/ml were pre-incubated with either piceatannol at final concentration 2.5 ug/ml or vehicle DMSO for 30 minutes in the dark. To a final volume of 0.5 ml, fibrinogen was added to a final concentration of 1 mg/ml, 1 mM Ca^2+, and 2 mM Mg^2+, and GPRP to a final concentration of 20 μM. The tube was placed in the NO-501 monitor to measure NO production and the platelets are stirred with a magnetic stirrer. TRAP (Thrombin Receptor Agonist Peptide) at a final concentration of 20 μM was added to start the reaction. […] The readings were taken for 300 seconds (5 minutes). […]

platelets [3] = assay: Platelet aggregation (TRAP-stimulated, recorded together with NO production); details: 200 ug/ml
Description: (§1) FIGS. 2A and 2B show the effect of calpeptin on NO production. Platelets at 2×10^8/ml were pre-incubated with either calpeptin at final concentration 200 ug/ml or vehicle DMSO for 30 minutes in the dark. To a final volume of 0.5 ml, fibrinogen was added to a final concentration of 1 mg/ml, 1 mM Ca^2+, and 2 mM Mg^2+, and GPRP (gly-pro-arg-pro) to a final concentration of 20 μM. The tube was placed in the NO-501 monitor to measure NO production and the platelets are stirred with a magnetic stirrer. TRAP (Thrombin Receptor Agonist Peptide) at a final concentration of 20 μM was added to start the reaction. […] The readings were taken for 300 seconds (5 minutes).
as §1, with “Platelets” for “FIGS. 2A and 2B show the effect of calpeptin on NO production. Platelets”, “GPRP” for “GPRP (gly-pro-arg-pro)”

platelets [4] = assay: Inhibition of clot retraction (thrombin-induced, platelets with fibrinogen)
Description: Platelets (2×10^8 platelets/ml) were incubated with either piceatannol at a final concentration of 40 μg/ml, calpeptin at a final concentration of 200 μg/ml, or vehicle DMSO for 30 minutes in the dark. To each sample, fibrinogen was added to a final concentration of 300 nM, 1 mM Ca^2+, and 2 mM Mg^2+, 10 minutes prior to the addition of 0.5 unit/ml of thrombin. The clots were incubated for 30 minutes at 37° C. and then transferred to ice before taking photographs. Tubes: 1, vehicle control treated sample without the addition of thrombin; 2, vehicle control treated sample; 3, piceatannol treated sample; 4, calpeptin treated sample.
To determine the effect of the syk kinase inhibitor piceatannol and the calpain inhibitor calpeptin, the following experiments were carried out. Platelets (2×10^8 platelets/ml) were incubated with either piceatannol at a final concentration of 40 μg/ml, calpeptin at a final concentration of 200 μg/ml, or vehicle DMSO for 30 minutes in the dark. To each sample, fibrinogen was added to a final concentration of 300 nM, 1 mM Ca^2+, and 2 mM Mg^2+, 10 minutes prior to the addition of 0.5 unit/ml of thrombin. The clots were incubated for 30 minutes at 37° C. and then transferred to ice before taking photographs. […]

Oc1cc(O)cc(/C=C/c2ccc(O)c(O)c2)c1 [piceatannol]
Clot Lysis in the Presence of Platelets (value relative to control designated as 1) (platelets [1]; 40 ug/ml): 6.2 | fibrinolysis of clots, of that of the control (platelets [1]; 40 ug/ml): about 600%

CCCC[C@@H](C=O)NC(=O)[C@H](CC(C)C)NC(=O)OCc1ccccc1 [calpeptin]
NO production (platelets [2]): increased and sustained NO production | Clot Lysis in the Presence of Platelets (value relative to control designated as 1) (platelets [1]; 200 ug/ml): 6.2 | fibrinolysis of clots, of that of the control (platelets [1]; 200 ug/ml): about 600% | effect on platelet aggregation (platelets [3]): inhibits both platelet aggregation and clot retraction | effect on clot retraction (platelets [4]; 200 ug/ml, 30 min pre-incubation, 0.5 unit/ml thrombin, 30 min 37 C): inhibited platelet mediated clot retraction

CC(C)(C)n1nc(-c2ccc(Cl)cc2)c2c(N)ncnc21 [PP2]
effect on clot retraction (platelets [4]; 10 uM (data not shown)): did not have any effect on clot retraction
